These results are taken from ChEMBL document CHEMBL1201862, “PubChem BioAssay data set” (2004).

Assay [1] addresses Sphingosine 1-phosphate receptor 2 (Homo sapiens, UniProt O95136). As to the kind of experiment: Dose Response Cell Based Assay for Agonists of the S1P2 Receptor. [Related pubchem assays: 729, 736, 843 ]. The assay is classed as functional.
The nature of assay [2]: viability of uninfected HEp-2 cells – cell-based, HTS, cytotoxicity control for RSV inhibitor project, dose response (AID 2410). The assay is classed as functional. Conditions: human respiratory syncytial virus.
Assay [3] is described as follows: microbe, parasite or virus in culture. Conditions: Mycobacterium tuberculosis. The assay is classed as functional.
A short description of assay [4]: M. tuberculosis growth inhibition, HTS (AID 449762). The assay is classed as functional.
A further assay has as its target Paired box protein Pax-8 (Homo sapiens, UniProt Q06710). As to the kind of experiment: PAX8 transcriptional activity inhibition in RMG-I – RMG-I cells, luciferase, cherry-pick, dose response (AID 687027).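 Further: luciferase reporter driven by Pax8 target thyroperoxidase promoter measured by SteadyGlo luminescence.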 The assay is classed as functional, cell-based.
Assay [5] can be described thus: OVCAR-3 cell viability loss – plate reader, dry powder samples, PAX8 inhibitor project, dose response (AID 743044). The assay is classed as functional, cell-based.
Assay [6] is described as follows: inhibitors acting on PAX2 in cells – cell-based, plate reader, dry powder samples, selectivity assay for PAX8 inhibitor project, dose response (AID 743048).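 Further: HEK293 cells carrying a WT1 promoter luciferase reporter driven by expressed Pax2; potency is for inhibition of Pax2 driven reporter signal.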 The assay is classed as functional.
Assay [7] is described as follows: OV-90 cell viability loss – plate reader, dry powder, SA8, PAX8 inhibitor project, dose response (AID 743149). The assay is classed as functional, cell-based.
Assay [8] in a line: COV362 cell viability loss – plate reader, dry powder, SA12, cytotoxicity control for PAX8 inhibitor project, dose response (AID 743144). The assay is classed as functional, cell-based.
Assay [9] in a line: COV434 cell viability loss – plate reader, dry powder, SA7, cytotoxicity control for PAX8 inhibitor project, dose response (AID 743145). The assay is classed as functional, cell-based.
Assay [10] is described as follows: PAX5 cellular inhibition readout – cell-based, plate reader, dry powder samples, selectivity assay for PAX8 inhibitor project, dose response (AID 743047).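 Further: HEK293 cells carrying a Pax5 driven CD19 promoter luciferase reporter; potency of inhibitors that lower reporter luminescence.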 The assay is classed as functional.
A short description of assay [11]: PAX8-dependent cell viability loss – plate reader, dry powder, dose response (AID 743049). The assay is classed as functional, cell-based.
The nature of assay [12]: OVCAR4 cell viability loss – plate reader, dry powder, SA11, cytotoxicity control for PAX8 inhibitor project, dose response (AID 743150). The note with it: OVCAR-4. The assay is classed as functional, cell-based.
Assay [13] concerns the target Dual specificity protein phosphatase 3 (Homo sapiens, UniProt P51452). As to the kind of experiment: VHR phosphatase inhibition, dose response, selectivity assay for STEP inhibitor project, biochemical (AID 602374). The assay is classed as functional. Conditions: read-out: IC50_Mean.
The target of assay [14] is T1, Tyrosine-protein phosphatase non-receptor type 5 (Homo sapiens, UniProt P54829).
T1 sequence (P54829 whole entry): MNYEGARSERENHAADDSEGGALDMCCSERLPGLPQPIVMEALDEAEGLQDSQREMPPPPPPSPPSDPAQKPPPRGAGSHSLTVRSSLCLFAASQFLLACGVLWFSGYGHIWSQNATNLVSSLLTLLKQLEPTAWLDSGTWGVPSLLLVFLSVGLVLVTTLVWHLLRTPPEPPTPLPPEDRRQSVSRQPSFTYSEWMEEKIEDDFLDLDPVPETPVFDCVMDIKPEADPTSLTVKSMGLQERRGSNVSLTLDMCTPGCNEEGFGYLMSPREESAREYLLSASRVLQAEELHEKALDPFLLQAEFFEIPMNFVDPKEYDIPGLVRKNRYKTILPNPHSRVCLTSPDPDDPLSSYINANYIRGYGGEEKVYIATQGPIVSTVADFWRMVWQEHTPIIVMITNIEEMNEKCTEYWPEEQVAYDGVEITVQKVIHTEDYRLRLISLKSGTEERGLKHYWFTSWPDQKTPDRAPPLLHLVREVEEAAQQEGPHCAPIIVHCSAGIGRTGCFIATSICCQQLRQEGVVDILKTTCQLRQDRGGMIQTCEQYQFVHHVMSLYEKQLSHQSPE
The assay is described as follows: PTPN5 enzyme inhibition – biochemical, fluorescence intensity, uHTS hits, confirmation (AID 602372). The assay is classed as functional. Conditions: read-out: IC50_Mean.

The next assay deals with Ephrin type-A receptor 4 (Mus musculus, UniProt Q03137). As to the kind of experiment: EphA4 ligand-binding antagonists – biochemical, colorimetric, mouse EphA4, primary screen (AID 689). The assay is classed as functional.
Assay [15] addresses T2, Tyrosine-protein phosphatase non-receptor type 11 (Homo sapiens, UniProt Q06124).
T2 sequence (Q06124 whole entry): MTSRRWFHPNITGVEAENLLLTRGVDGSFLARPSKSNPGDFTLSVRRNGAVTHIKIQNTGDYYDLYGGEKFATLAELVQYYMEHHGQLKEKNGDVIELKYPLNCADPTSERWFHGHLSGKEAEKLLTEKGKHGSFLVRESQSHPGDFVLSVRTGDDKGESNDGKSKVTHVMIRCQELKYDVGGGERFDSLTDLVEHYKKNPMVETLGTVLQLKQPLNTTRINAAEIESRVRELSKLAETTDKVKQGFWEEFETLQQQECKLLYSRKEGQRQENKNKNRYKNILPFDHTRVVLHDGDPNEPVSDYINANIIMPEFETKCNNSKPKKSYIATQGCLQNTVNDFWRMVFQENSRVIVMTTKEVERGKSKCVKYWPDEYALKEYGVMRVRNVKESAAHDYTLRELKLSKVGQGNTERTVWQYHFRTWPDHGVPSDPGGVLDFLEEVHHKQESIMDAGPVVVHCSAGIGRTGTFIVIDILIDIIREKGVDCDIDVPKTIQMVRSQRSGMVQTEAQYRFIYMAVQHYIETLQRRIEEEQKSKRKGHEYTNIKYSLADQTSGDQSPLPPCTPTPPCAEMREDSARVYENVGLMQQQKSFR
The assay is described as follows: PTPN11 enzyme inhibitors – biochemical, selectivity assay for STEP inhibitor project, dose response (AID 602367). The assay is classed as functional. Conditions: read-out: IC50_Mean.

The target in assay [16] is Tyrosine-protein phosphatase non-receptor type 22 (Homo sapiens, UniProt Q9Y2R2). The assay is described as follows: lymphoid phosphatase LYP inhibitors – biochemical, selectivity assay for STEP inhibitor project, dose response (AID 624241). The assay is classed as functional.
The next assay relates to A-375. As to the kind of experiment: MITF: Counter assay: A375 proliferation Measured in Cell-Based System Using Plate Reader - 2084-03_Inhibitor_Dose_DryPowder_Activity. [Related pubchem assays (depositor defined):AID488944]. The assay is classed as functional. The note with it: Homo sapiens.
A short description of assay [17]: non-specific 3'UTR reporter inhibition in Clone20-Shn3RL – cell-based, Renilla luciferase, cherry-picked, counter-screen for Shn3 inhibitor project, dose response (AID 624133). The assay is classed as functional. (Counterscreens check selectivity or assay interference.)
In assay [18] the target is T3, Microphthalmia-associated transcription factor (Homo sapiens, UniProt O75030).
T3 sequence (O75030 whole entry): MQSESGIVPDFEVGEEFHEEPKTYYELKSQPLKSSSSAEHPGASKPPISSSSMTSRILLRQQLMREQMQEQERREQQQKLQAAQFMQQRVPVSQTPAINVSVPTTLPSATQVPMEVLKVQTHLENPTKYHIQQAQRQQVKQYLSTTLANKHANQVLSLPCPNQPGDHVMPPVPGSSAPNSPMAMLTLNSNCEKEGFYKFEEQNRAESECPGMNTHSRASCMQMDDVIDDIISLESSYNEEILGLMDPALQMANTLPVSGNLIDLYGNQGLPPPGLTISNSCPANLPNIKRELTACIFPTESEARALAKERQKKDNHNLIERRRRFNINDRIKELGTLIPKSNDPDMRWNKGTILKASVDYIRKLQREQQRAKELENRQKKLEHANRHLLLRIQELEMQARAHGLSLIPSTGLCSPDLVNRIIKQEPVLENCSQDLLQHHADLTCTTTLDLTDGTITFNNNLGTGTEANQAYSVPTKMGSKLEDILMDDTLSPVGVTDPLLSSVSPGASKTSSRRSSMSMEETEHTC
The assay is described as follows: reducers of TRPM1 reporter luminescence, concentration series – cell-based, SK-MEL-5, cherry-picked, set 3, MITF inhibitor project, dose response (AID 493073).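 Further: SK-MEL-5 melanoma cells with luciferase driven by the MITF target TRPM1 promoter.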 The assay is classed as functional.

The nature of assay [19]: reduction of Shn3 3'UTR-driven luciferase in osteoblasts – cell-based, Clone20 osteoblasts, firefly luciferase, cherry-picked, dose response (AID 624132).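 Further: firefly luciferase luminescence from reporter carrying the Shn3 3'UTR in osteoblasts.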 The assay is classed as functional.
Assay [20] in a line: loss of viability in HepG2 cells – cell-based, CellTiter-Glo, cherry-picked, cytotoxicity control for Shn3 inhibitor project, dose response (AID 624134). The assay is classed as functional. Background: In ATP-based viability assays light output follows the ATP content of the culture.
Assay [21] is described as follows: viability loss in Vero cells – cytotoxicity control for Vif-APOBEC3G degradation inhibitor project, dose response (AID 1117358). The assay is classed as functional. Conditions: Vero.
For assay [22], the target named is T4, Fibrinogen beta chain (Homo sapiens, UniProt P02675). As to the kind of experiment: Fluorescence polarization-based biochemical high throughput dose response assay to identify inhibitors that disrupt the binding of a cyclic peptide (Tn7) to the fibrin proteolytic product D-Dimer and fragment E complex [DD(E )]. (Polarisation of emitted light reports the rotation of a fluorescent probe.)

Assay [23] deals with T5, Aryl hydrocarbon receptor (Homo sapiens, UniProt P35869).
T5 sequence (P35869 whole entry): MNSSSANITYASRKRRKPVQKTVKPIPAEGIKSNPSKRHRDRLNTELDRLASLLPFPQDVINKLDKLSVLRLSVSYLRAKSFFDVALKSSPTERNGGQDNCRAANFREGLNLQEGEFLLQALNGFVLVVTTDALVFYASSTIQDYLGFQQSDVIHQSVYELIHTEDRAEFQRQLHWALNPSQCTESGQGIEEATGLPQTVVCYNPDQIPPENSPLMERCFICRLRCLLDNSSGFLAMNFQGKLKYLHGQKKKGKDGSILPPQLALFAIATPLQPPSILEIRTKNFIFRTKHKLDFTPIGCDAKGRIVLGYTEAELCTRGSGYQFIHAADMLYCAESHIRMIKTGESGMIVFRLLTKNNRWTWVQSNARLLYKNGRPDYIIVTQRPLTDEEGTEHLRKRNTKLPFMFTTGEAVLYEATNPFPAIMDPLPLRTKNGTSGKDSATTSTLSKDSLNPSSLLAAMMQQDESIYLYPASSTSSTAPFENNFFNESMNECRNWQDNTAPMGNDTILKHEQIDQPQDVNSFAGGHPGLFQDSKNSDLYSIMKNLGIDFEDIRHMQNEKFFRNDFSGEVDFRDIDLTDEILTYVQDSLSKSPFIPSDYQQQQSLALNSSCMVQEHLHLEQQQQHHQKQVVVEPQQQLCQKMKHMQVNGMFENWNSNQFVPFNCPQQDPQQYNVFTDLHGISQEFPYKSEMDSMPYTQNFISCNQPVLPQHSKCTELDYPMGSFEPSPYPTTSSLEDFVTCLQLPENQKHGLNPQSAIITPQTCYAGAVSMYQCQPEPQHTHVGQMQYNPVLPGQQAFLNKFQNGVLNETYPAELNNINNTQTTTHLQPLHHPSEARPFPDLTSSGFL
As to the kind of experiment: Luminescence-based cell-based high throughput dose response assay for activators of the Aryl Hydrocarbon Receptor (AHR). [Related pubchem assays: 2796 (Primary screen (AHR activators in singlicate)), 2845 (Confirmation screen (AHR activators in triplicate)), 434939 (Counterscreen (PXR activators in triplicate)), 2804 (Summary (AHR activators))]. The assay is classed as ADME.

In assay [24] the target is T4, Fibrinogen beta chain. The assay is described as follows: Fluorescence polarization-based biochemical high throughput dose response assay to identify inhibitors that disrupt the binding of a cyclic peptide (Tn6) to the fibrin proteolytic product D-Dimer and fragment E complex [DD(E )].

Active and inactive are the calls of the source.

T4 sequence (P02675 whole entry, the tested form may be a part): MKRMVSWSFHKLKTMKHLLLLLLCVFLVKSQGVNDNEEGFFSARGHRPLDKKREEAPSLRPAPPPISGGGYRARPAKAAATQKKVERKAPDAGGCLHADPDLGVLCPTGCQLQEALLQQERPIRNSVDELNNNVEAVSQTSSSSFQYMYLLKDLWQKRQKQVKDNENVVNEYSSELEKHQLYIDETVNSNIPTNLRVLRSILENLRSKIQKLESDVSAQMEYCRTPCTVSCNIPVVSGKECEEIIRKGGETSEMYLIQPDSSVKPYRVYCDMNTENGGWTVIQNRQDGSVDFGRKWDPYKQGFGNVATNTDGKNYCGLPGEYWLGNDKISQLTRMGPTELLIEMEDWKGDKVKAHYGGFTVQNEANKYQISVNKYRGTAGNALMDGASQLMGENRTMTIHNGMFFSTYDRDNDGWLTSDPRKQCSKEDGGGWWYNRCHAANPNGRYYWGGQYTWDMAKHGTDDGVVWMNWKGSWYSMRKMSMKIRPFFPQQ
Chain of Ephrin type-A receptor 4 (Q03137 whole entry): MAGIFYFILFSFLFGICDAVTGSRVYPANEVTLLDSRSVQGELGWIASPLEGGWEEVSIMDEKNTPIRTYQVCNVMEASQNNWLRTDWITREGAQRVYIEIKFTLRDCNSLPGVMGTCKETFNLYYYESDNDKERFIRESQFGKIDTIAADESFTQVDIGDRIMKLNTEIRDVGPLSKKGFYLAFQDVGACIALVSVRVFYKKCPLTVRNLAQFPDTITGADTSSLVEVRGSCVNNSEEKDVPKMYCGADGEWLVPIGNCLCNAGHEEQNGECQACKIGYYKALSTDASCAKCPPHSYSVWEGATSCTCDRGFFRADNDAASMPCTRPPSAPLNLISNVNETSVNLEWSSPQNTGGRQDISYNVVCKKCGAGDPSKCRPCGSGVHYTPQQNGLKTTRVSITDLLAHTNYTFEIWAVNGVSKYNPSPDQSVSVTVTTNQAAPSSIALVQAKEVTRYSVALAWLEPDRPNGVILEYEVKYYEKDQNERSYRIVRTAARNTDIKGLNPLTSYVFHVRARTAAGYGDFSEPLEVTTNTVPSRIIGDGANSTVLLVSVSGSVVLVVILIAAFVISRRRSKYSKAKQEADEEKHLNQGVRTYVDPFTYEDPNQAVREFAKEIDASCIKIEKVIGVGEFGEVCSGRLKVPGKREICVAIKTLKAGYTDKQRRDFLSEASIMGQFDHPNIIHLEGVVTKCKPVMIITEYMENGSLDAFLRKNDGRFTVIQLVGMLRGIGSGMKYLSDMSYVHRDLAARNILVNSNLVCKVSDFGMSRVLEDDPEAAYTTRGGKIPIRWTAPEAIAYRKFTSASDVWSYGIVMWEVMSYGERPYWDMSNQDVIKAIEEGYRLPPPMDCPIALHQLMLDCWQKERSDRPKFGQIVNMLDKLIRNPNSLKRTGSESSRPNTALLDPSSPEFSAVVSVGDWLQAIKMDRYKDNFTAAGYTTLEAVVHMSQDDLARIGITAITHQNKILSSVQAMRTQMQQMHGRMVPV
Chain of Sphingosine 1-phosphate receptor 2 (O95136 whole entry): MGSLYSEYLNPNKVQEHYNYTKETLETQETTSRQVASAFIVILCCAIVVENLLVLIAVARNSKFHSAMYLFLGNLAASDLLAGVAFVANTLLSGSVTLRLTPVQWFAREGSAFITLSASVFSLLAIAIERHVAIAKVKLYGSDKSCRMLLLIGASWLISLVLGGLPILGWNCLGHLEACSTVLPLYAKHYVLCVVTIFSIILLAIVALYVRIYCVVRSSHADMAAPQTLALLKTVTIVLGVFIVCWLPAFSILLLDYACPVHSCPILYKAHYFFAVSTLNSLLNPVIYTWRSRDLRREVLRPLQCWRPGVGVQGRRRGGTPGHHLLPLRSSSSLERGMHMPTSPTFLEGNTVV
Chain of Paired box protein Pax-8 (Q06710 whole entry): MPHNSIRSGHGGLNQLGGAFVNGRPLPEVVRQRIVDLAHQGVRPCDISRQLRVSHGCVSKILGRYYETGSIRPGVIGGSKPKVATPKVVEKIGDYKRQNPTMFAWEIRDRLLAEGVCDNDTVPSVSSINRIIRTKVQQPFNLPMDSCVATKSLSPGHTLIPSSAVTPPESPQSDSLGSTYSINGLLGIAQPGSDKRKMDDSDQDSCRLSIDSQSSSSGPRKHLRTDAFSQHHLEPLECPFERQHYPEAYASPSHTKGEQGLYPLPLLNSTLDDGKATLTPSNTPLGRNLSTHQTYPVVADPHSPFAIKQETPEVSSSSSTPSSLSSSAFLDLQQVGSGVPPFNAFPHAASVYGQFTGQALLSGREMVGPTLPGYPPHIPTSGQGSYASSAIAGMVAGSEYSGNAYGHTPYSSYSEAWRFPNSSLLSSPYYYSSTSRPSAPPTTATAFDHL
Chain of Tyrosine-protein phosphatase non-receptor type 22 (Q9Y2R2 whole entry): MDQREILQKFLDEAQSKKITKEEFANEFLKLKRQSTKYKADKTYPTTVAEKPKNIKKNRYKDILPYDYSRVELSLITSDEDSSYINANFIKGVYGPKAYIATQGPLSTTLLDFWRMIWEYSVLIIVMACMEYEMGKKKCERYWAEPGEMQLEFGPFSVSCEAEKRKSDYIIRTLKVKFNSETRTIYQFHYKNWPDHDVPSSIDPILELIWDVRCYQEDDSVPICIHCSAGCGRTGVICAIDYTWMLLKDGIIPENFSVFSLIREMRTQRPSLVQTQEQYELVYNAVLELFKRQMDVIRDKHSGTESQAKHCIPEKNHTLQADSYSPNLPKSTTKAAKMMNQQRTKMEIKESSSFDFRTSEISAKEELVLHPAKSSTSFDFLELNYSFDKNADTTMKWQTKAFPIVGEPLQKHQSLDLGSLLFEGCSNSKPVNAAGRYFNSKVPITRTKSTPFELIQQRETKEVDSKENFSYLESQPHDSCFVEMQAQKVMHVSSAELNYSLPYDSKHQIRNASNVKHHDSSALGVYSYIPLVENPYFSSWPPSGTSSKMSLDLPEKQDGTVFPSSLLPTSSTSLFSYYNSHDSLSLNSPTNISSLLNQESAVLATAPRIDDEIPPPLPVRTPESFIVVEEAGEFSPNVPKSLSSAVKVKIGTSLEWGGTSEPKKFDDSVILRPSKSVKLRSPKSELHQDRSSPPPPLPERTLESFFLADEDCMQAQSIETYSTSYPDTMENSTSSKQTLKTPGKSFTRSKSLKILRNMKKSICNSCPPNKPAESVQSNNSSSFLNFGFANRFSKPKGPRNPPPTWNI
Chain of Dual specificity protein phosphatase 3 (P51452 whole entry): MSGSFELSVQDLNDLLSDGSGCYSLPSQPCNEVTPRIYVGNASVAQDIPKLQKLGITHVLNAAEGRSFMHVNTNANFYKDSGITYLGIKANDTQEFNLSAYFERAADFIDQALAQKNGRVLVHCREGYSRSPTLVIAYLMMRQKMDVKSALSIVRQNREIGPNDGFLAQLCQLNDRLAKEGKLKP

Turning to `CC(C)CCNC(=O)c1c(N)n(Cc2ccc3c(c2)OCO3)c2nc3ccccc3nc12`, the 50% effective concentration (EC50) – broadly, the concentration giving half of the maximal effect – in [1] is 1.69 µM (active).
Consider `COC(=O)C1=C(C)NC(=O)/C1=C\c1cc(C)n(-c2cccc(C)c2)c1C`, for which the CC50 in assay [2] was 16 µM (active); in assay [3], > 40 µM (active). For the same compound, in [4], the IC50 is > 100 µM (active).
In the case of `CC(C)CC1NC(=S)N(Cc2ccccc2)C1=O` (configuration not stated), the AC50 (commonly the midpoint of the concentration-response curve, whichever way the signal moves) is 6.46 µM (active) at Paired box protein Pax-8; 94 µM (active) in assay [5]; 29.2 µM (active) in assay [6]; 21.4 µM (active) in [7]; 33.9 µM (active) in assay [8]; 18.8 µM (active) in [9]. For the same compound, the AC50 in assay [10] was 43 µM (active); in [11], 46.8 µM (active); in [12] it was 15.9 µM (active).
As to `Cc1ccc(-n2c(C)nc3oc4ccccc4c(=O)c3c2=O)cc1`, the IC50 in assay [13] is 0.779 µM (active); in assay [14], 14.4 µM (active); at Ephrin type-A receptor 4 it was > 100 µM (not active); in assay [15], 1.13 µM (active); in [16], 14 µM (active).
Take `COc1cccc(CNCCc2c[nH]c3ccccc23)c1OCc1ccccc1`: the AC50 with A-375 is 36.2 µM (active); in assay [17] it was 9.39 µM (active); in [18], 14.4 µM (active); in assay [19] it was 4.09 µM (active); in assay [20] it was 11.8 µM (active). In assay [21], the CC50 was > 40 µM (active).
On to `C#CCn1cc(/C=N/NC(=O)c2cc3ccccc3o2)c2ccccc21`, for which the IC50 on Fibrinogen beta chain [22] and at Fibrinogen beta chain [24] was > 83.3 µM (inactive) throughout. In [23], the EC50 was 0.544 µM (active).
